This note sets out measurements from ChEMBL document CHEMBL1909046, “DrugMatrix in vitro pharmacology data”.

Assay [1] in a line: DRUGMATRIX: Sodium/nucleoside co-transporter radioligand binding (ligand: nitrobenzylthioinosine). It counts as cell membranes, Cavia porcellus, Dunkin-Hartley, Cerebral cortex, Membrane. The conditions noted are these: Not Active = under 50% inhibition at 10 µM.
Assay [2] concerns the target T1, Alpha-2A adrenergic receptor (Homo sapiens, UniProt P08913). Also: in other assays of this panel Not Active means under 50% inhibition at 10 µM.
T1 sequence (P08913 whole entry): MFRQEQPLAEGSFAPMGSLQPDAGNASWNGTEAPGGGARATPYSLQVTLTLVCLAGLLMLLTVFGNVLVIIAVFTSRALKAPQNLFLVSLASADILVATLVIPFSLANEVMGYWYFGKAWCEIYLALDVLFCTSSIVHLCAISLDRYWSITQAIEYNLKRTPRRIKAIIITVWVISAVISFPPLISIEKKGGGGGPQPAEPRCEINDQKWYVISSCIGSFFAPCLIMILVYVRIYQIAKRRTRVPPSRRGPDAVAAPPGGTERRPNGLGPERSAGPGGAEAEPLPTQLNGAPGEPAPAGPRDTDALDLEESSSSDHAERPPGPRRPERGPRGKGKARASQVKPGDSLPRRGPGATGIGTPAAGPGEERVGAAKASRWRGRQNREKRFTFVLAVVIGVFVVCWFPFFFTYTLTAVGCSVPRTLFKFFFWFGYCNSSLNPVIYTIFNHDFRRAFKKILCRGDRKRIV
Format: cell membranes, Sf9, Membrane.

Assay [3] has as its target T2, Calcitonin receptor (Homo sapiens, UniProt P30988). Also: in other assays of this panel Not Active means under 50% inhibition at 10 µM.
T2 sequence (P30988 whole entry): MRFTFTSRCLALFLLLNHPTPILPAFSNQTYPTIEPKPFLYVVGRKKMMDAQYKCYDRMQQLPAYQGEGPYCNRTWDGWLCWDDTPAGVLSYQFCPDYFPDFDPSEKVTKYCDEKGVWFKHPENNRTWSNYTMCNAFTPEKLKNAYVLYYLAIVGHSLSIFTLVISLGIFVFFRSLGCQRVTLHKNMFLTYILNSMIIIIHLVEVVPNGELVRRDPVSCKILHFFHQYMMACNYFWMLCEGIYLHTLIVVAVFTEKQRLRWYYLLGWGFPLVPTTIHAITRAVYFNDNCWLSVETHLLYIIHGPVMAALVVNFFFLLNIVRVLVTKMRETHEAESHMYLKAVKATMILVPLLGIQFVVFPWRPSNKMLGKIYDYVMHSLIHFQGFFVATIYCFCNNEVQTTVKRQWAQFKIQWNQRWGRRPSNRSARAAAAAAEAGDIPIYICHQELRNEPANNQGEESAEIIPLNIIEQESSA
It counts as cell membranes, Membrane. The conditions noted are these: t47d.

Assay [4] has as its target Cannabinoid receptor 1 (Homo sapiens, UniProt P21554). It counts as cell membranes, Membrane. The note with it: chem-1. Also: in other assays of this panel Not Active means under 50% inhibition at 10 µM.
The nature of assay [5]: DRUGMATRIX: GABAA, Flunitrazepam, Central radioligand binding (ligand: [3H] Flunitrazepam). It counts as cell membranes, Rattus norvegicus, Wistar, Brain, Membrane. The conditions noted are these: Not Active = under 50% inhibition at 10 µM.
In assay [6] the target is Acetylcholinesterase (Homo sapiens, UniProt P22303). Put plainly: DRUGMATRIX: Acetylcholinesterase enzyme inhibition (substrate: acetylthiocholine). The conditions noted are these: Not Active = under 50% inhibition at 10 µM. It counts as cell-based, HEK293.
Acetylcholinesterase, sequence (P22303 whole entry): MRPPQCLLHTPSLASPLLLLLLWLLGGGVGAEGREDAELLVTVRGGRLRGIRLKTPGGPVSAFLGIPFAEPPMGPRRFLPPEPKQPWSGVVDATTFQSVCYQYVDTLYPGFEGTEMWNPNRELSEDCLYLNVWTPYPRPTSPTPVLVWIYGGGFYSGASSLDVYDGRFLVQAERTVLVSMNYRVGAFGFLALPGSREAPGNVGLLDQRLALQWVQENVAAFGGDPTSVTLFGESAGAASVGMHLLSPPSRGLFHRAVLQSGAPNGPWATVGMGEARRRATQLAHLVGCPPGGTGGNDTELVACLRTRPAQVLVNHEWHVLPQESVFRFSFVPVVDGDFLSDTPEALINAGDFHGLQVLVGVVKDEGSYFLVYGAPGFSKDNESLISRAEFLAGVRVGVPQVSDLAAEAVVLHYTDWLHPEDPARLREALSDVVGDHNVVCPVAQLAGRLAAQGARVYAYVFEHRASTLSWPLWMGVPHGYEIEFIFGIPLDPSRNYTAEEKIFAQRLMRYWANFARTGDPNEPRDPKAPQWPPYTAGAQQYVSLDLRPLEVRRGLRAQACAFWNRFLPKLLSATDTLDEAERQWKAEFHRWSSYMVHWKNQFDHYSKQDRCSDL

Usually IC50 stands for the point on the concentration scale where inhibition reaches its midpoint. Broadly, the Ki is the equilibrium dissociation constant of an inhibitor or competing ligand from its target.

Cannabinoid receptor 1, sequence (P21554 whole entry): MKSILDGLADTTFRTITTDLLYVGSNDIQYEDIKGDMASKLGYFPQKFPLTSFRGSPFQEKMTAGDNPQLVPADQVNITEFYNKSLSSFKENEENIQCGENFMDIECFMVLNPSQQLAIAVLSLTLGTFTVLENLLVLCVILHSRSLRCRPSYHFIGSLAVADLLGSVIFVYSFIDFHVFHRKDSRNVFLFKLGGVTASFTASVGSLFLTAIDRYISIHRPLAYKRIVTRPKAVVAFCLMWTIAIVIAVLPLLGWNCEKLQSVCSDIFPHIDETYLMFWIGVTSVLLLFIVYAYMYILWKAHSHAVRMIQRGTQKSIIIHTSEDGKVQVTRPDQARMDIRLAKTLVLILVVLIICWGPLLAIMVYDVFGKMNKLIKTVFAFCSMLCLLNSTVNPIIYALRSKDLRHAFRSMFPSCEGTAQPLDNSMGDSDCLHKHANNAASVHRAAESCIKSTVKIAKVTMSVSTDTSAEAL

As for `C[C@@H]1CN(c2c(F)c(N)c3c(=O)c(C(=O)O)cn(C4CC4)c3c2F)C[C@H](C)N1` [SPARFLOXACIN], the IC50 result in assay [1], in assay [2] (sf9), in assay [3], in assay [4], in assay [5] and in assay [6] (hek293) was “Not Active” each time. Besides, the inhibitory constant (Ki) result in assay [1] and in assay [5] was “Not Active” throughout.
With `Cc1noc(NS(=O)(=O)c2ccc(N)cc2)c1C` [SULFISOXAZOLE], the IC50 entry in assay [1], in assay [2] (sf9), in assay [3], in assay [4], in assay [5] and in assay [6] (hek293) was “Not Active” in each case. Further, the inhibitory constant (Ki) result in assay [1] and in assay [5] was “Not Active” throughout.
With `CSc1ccc(/C=C2/C(C)=C(CC(=O)O)c3cc(F)ccc32)cc1` [SULINDAC SULFIDE], the IC50 entry in assay [1], in assay [2] (sf9), in assay [3], in assay [4], in assay [5] and in assay [6] (hek293) was “Not Active” each time. Moreover, the Ki result in assay [1] and in assay [5] was “Not Active” each time.
For `CC(C)N1CCN(c2ccc(OCC3COC(Cn4cncn4)(c4ccc(Cl)cc4Cl)O3)cc2)CC1` (stereo unspecified) [TERCONAZOLE], the IC50 is 12.4 µM in assay [1] (read-out: IC50); 0.983 µM in assay [2] (read-out: IC50); “Not Active” in assay [3]; “Not Active” in assay [4]; “Not Active” in assay [5]; 21.6 µM in assay [6] (read-out: IC50). Also, the inhibitory constant (Ki) is 4.24 µM in assay [1] (read-out: Ki), 0.369 µM in assay [2] (read-out: Ki) and “Not Active” in assay [5].
For the compound `Nc1nc2nc[nH]c2c(=S)[nH]1` [THIOGUANINE], the IC50 result in assay [1], in assay [2] (sf9), in assay [3], in assay [4], in assay [5] and in assay [6] (hek293) was “Not Active” each time. Besides, the inhibition constant Ki result in assay [1] and in assay [5] was “Not Active” each time.
As to `Cc1cccc(N(C)C(=S)Oc2ccc3ccccc3c2)c1` [TOLNAFTATE], the concentration for half-maximal inhibition (IC50) result in assay [1], in assay [2] (sf9), in assay [3], in assay [4], in assay [5] and in assay [6] (hek293) was “Not Active” throughout. Also, the inhibitory constant (Ki) result in assay [1] and in assay [5] was “Not Active” in each case.
For the compound `NC[C@H]1CC[C@H](C(=O)O)CC1` [TRANEXAMIC ACID], the IC50 result in assay [1], in assay [2] (sf9), in assay [3], in assay [4], in assay [5] and in assay [6] (hek293) was “Not Active” in each case. The inhibition constant (Ki) result in assay [1] and in assay [5] was “Not Active” each time.
`CC1(C)O[C@@H]2C[C@H]3[C@@H]4CCC5=CC(=O)C=C[C@]5(C)[C@@]4(F)[C@@H](O)C[C@]3(C)[C@]2(C(=O)CO)O1` [TRIAMCINOLONE ACETONIDE]: the IC50 result in assay [1], in assay [2] (sf9), in assay [3], in assay [4], in assay [5] and in assay [6] (hek293) was “Not Active” throughout. For the same compound, the Ki entry in assay [1] and in assay [5] was “Not Active” throughout.
With `NS(=O)(=O)c1cc2c(cc1Cl)NC(C(Cl)Cl)NS2(=O)=O` (stereo unspecified) [TRICHLORMETHIAZIDE], the 50% inhibitory concentration (IC50) entry in assay [1], in assay [2] (sf9), in assay [3], in assay [4], in assay [5] and in assay [6] (hek293) was “Not Active” in each case. Besides, the Ki entry in assay [1] and in assay [5] was “Not Active” throughout.
Turning to `Cc1c(C)c2c(c(C)c1O)CCC(C)(COc1ccc(CC3SC(=O)NC3=O)cc1)O2` (stereo unspecified) [TROGLITAZONE], the 50% inhibitory concentration (IC50) entry in assay [1], in assay [2] (sf9), in assay [3], in assay [4], in assay [5] and in assay [6] (hek293) was “Not Active” in each case. Moreover, the Ki result in assay [1] and in assay [5] was “Not Active” each time.
